Measured values published in patent publication US6537965B1, “Amino-terminal modified parathyroid hormone (PTH) analogs” (The General Hospital Corporation, priority 1998, dated 2003).
pEC50: −log10 of the molar value. Ends that are not written are not given here. Peptide text beside a SMILES is read from it. * marks the point of attachment. Propionyl = CCC(=O)*

What was measured:
Type in all cases: cell-based
[1] = target: T1, hPTH-1 receptors (Homo sapiens, UniProt Q03431); test: cAMP accumulation (adenylyl cyclase activation) in HKRK C53 cells; parameters: expressed in transfected cells; conditions: for cyclic AMP accumulation, efficacy compared with native hPTH(1-34)NH2: HKRK C53 cells, about 150,000 hPTH-1 receptors per cell, 10^-9M and 10^-7M peptide (FIG. 1); for reduction of AC activity relative to hPTH(1-34): via the human PTH-1 receptor, clonal LLC-PK1 cells
T1 sequence (Q03431 27-593): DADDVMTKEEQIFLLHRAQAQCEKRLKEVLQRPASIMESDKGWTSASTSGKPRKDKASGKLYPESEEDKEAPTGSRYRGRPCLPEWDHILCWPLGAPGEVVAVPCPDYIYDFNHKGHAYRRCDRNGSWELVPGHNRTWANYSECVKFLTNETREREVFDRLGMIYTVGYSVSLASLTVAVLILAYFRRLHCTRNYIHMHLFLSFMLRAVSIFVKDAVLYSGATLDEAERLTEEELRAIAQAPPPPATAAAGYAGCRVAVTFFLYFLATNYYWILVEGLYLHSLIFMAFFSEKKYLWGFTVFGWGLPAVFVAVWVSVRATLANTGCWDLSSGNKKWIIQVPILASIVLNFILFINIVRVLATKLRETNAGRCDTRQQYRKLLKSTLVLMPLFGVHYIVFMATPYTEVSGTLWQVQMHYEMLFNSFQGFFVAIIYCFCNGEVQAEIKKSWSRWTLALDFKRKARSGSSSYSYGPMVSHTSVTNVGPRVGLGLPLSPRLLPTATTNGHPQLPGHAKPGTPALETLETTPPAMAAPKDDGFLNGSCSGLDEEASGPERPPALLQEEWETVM
From the text: (§1) The following cell lines were used in these studies. HKRK C53 subclones of LLC-PKI porcine renal epithelial cells which stably express human PTH-1 receptors (150,000 receptors/cell). SaOS-2 cells are transformed human osteosarcoma cells which express relatively few (10,000-20,000 per cell) human PTH-1 receptors. HPR2-7 cells are subclones of LLC-PK1 which express approximately 250,000 recombinant human PTH-2 receptors per cell. […] The HPR2-27 and HPR2-22 cell lines were created in the same fashion as the HKRK cells but employing instead type 2 PTH receptor cDNA using the transfection technique of (Bringhurst, F. R., et al., Endocrinology 132(5):2090-2098 (1993); Guo, J., et al., Endocrinology 136(9):3884-3891 (1995)).
(§2) Intracellular cAMP accumulation, PLC activation and PTHR binding affinity were measured as previously reported (Bringhurst, F. R., et al., Endocrinology 132(5):2090-2098 (1993); Guo, J., et al., Endocrinology 136(9):3884-3891 (1995)). Intracellular cAMP accumulation was measured in extracts of cells that were exposed to human PTH peptides in the presence of isobutylmethyxanthine (IBMX, 1 mM) at 37° C. for 15 min. After terminating the reactions by aspiration and freezing in liquid nitrogen, cell monolayers were extracted with 50 mM HCl and cAMP was measured using a radioimmunoassay kit (Dupont-New England Nuclear, Boston, Mass.).

[2] = target: T1, hPTH-1 receptors; test: cAMP measurements in SaOS-2 cells; parameters: expressed in transfected cells; conditions: SaOS-2 cells, 10,000-20,000 human PTH-1 receptors per cell; up to 1 uM (FIG. 2)
From the text: (§3) The following cell lines were used in these studies. HKRK C53 subclones of LLC-PKI porcine renal epithelial cells which stably express human PTH-1 receptors (150,000 receptors/cell). SaOS-2 cells are transformed human osteosarcoma cells which express relatively few (10,000-20,000 per cell) human PTH-1 receptors. HPR2-7 cells are subclones of LLC-PK1 which express approximately 250,000 recombinant human PTH-2 receptors per cell. HKRK-B7 cells are subclones of LLC-PK which stably express approximately 1 million hPTH-1 receptors per cell. HPR2-22 cells are subclones of LLC-PK1 which express 1.5 million recombinant hPTH-2 receptors per cell. The HPR2-27 and HPR2-22 cell lines were created in the same fashion as the HKRK cells but employing instead type 2 PTH receptor cDNA using the transfection technique of (Bringhurst, F. R., et al., Endocrinology 132(5):2090-2098 (1993); Guo, J., et al., Endocrinology 136(9):3884-3891 (1995)).
as §2

[3] = target: T1, hPTH-1 receptors; test: phospholipase C (PLC) activity in HKRK-B7 cells; parameters: expressed in transfected cells; conditions: for activation of PLC: about 1 million hPTH-1 receptors per cell, 1000 nM (FIG. 4)
From the text: as §3
(§4) PLC was activated by PTH agonists in the presence of 30 mM LiCl at 37° C. for 30 min after 16 hr of labeling with [^3H]myo-inositol (3uCi/ml) in serum-free medium containing 0.1% bovine serum albumin. The reactions were stopped by rapid aspiration and addition of cold 5% TCA. Water-soluble radiolabeled inositol trisphosphate (IP3) was isolated after ether extraction by ion-exchange chromatography (Guo, J., et al., Endocrinology 136(9):3884-3891 (1995)). In experiments involving HEK 293 cells, cells previously transfected with human PTHR cDNA (in the pcDNA1 expression vector HKRK) using Lipofectamine (Gibco BRL) were labeled with [^3H]myo-inositol and assayed as described above, except that total water-soluble [^3H]inositol polyphosphates were collected as a single fraction from the ion-exchange columns.

[4] = target: T2, hPTH-2 receptors (Homo sapiens, UniProt P49190); test: cAMP measurements in clonal LLC-PK1 cells (HPR2-7); conditions: for cAMP responsiveness, efficacy compared with hPTH(1-34)NH2 / maximal cyclase activation (maximal response) compared with hPTH(1-34): HPR2-7 cells; for cAMP responsiveness, efficacy compared with hPTH(1-34)NH2: about 250,000 human PTH-2 receptors per cell (FIG. 3); for maximal cyclase activation (maximal response) compared with hPTH(1-34) / EC50 lower than that of hPTH(1-34): human PTH-2 receptor; for maximal cyclase activation (maximal response) compared with hPTH(1-34): very high concentrations (1 micromolar); for pEC50: clonal LLC-PK1 cells stably expressing human PTH-2 receptors, read-out: EC50 for activation of AC
T2 construct: expressed in transfected cells
From the text: as §1, §2

[5] = target: T2, hPTH-2 receptors; test: phospholipase C activation in HPR2-22 cells; conditions: 1.5 million hPTH-2 receptors per cell, 1,000 nM (FIG. 5)
From the text: as §3, §4

[6] = target: T1, hPTH-1 receptors; test: AC activation in HKRK B7 cells; parameters: expressed in transfected cells; conditions: HKRK B7 cells (large number of human PTH-1 receptors)
From the text: as §3, §2

T2 sequence (P49190 25-550): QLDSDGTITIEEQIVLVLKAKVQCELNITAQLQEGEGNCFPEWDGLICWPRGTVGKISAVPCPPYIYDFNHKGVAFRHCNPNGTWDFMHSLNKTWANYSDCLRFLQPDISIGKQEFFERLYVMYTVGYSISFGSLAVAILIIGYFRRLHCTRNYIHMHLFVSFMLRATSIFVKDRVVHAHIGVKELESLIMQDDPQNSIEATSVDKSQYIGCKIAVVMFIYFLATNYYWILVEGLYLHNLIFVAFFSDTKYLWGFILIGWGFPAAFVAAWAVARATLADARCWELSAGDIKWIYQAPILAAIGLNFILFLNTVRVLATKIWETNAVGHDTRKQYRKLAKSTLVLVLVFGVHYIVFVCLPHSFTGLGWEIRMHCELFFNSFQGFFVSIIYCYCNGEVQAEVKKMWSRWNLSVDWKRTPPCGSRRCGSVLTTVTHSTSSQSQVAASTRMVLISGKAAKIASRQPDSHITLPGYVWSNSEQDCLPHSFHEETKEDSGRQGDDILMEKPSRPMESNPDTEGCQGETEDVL

Row | cyclic AMP accumulation, efficacy compared with native hPTH(1-34)NH2 [1] | activation of PLC [3] | cAMP responsiveness, efficacy compared with hPTH(1-34)NH2 [4] | maximal cyclase activation (maximal response) compared with hPTH(1-34) ([4]; listed as desamino-[Gly^1]) | maximal cyclase activation (maximal response) compared with hPTH(1-34) ([4]; listed as desamino-[Gly^1]hPTH(1-34)) | pEC50 [4] | EC50 lower than that of hPTH(1-34) [4] [fold] | activation of phospholipase C [5] | reduction of AC activity relative to hPTH(1-34) [1] [fold] | activation of AC compared with hPTH-(1-34) [6] | PLC activity as % of the hPTH(1-34) maximum ([3]; 1000 nM) | maximal cyclase activation (maximal response) compared with hPTH(1-34) ([4]; listed as desamino-[Ala^1]) | maximal cyclase activation (maximal response) compared with hPTH(1-34) ([4]; listed as desamino-[Ala^1]hPTH(1-34)) | Compound | cyclase (cAMP) activity compared with control hPTH(1-34) [2]
1 | nearly the same efficacy | fill agonists |  |  |  |  |  |  |  |  |  |  |  | [Ala^1]hPTH(1-34)NH2: hPTH-(1-34) with substitution of Ala^1 for Ser^1 (AVSEIQLMHNLGKHLNSMERVEWLRKKLQDVHNF-NH2; not fully specified (residue 1); UniProt P01270 32-65, looked up, variant S1A) | comparable to that of the control peptide
2 |  | no activation of PLC | enhanced efficacy | substantially greater | twice | 8.00 | 3 | greater maximal activation | 10 | approximately equipotent |  |  |  | Ac-VSEIQLMHNLGKHLNSMERVEWLRKKLQDVHNF-NH2 [desamino-[Gly^1]hPTH(1-34)NH2] | minimal activity
3 | nearly the same efficacy | only a partial agonist |  |  |  |  |  |  |  |  | approximately 50% |  |  | [Gly^1]hPTH(1-34)NH2: hPTH-(1-34) with substitution of Gly^1 for Ser^1 (GVSEIQLMHNLGKHLNSMERVEWLRKKLQDVHNF-NH2; not fully specified (residue 1); UniProt P01270 32-65, looked up, variant S1G) | comparable to that of the control peptide
4 |  | no activation of PLC | enhanced efficacy |  |  | 8.00 | 3 | greater maximal activation | 10 | approximately equipotent |  | substantially greater | twice | CCC(=O)N[C@H](C(=O)N[C@@H](CO)C(=O)N[C@@H](CCC(=O)O)C(=O)N[C@H](C(=O)N[C@@H](CCC(N)=O)C(=O)N[C@@H](CC(C)C)C(=O)N[C@@H](CCSC)C(=O)N[C@@H](Cc1c[nH]cn1)C(=O)N[C@@H](CC(N)=O)C(=O)N[C@@H](CC(C)C)C(=O)NCC(=O)N[C@@H](CCCCN)C(=O)N[C@@H](Cc1c[nH]cn1)C(=O)N[C@@H](CC(C)C)C(=O)N[C@@H](CC(N)=O)C(=O)N[C@@H](CO)C(=O)N[C@@H](CCSC)C(=O)N[C@@H](CCC(=O)O)C(=O)N[C@@H](CCCNC(=N)N)C(=O)N[C@H](C(=O)N[C@@H](CCC(=O)O)C(=O)N[C@@H](Cc1c[nH]c2ccccc12)C(=O)N[C@@H](CC(C)C)C(=O)N[C@@H](CCCNC(=N)N)C(=O)N[C@@H](CCCCN)C(=O)N[C@@H](CCCCN)C(=O)N[C@@H](CC(C)C)C(=O)N[C@@H](CCC(N)=O)C(=O)N[C@@H](CC(=O)O)C(=O)N[C@H](C(=O)N[C@@H](Cc1c[nH]cn1)C(=O)N[C@@H](CC(N)=O)C(=O)N[C@@H](Cc1ccccc1)C(N)=O)C(C)C)C(C)C)[C@@H](C)CC)C(C)C [desamino-[Ala^1]hPTH(1-34)NH2] (Propionyl-VSEIQLMHNLGKHLNSMERVEWLRKKLQDVHNF-NH2) | minimal activity
